In PubChem BioAssay AID180 (DTP/NCI, 2004):
“And” between values parts separate entries of the source, which are not always exact repeats. Equal values may be shown once.

Tested on: BDF1 mice, Adenocarcinoma 755 s.c., tumor weight T/C
Test: NCI In Vivo Anticancer Drug Screen. Data for tumor model Adenocarcinoma 755 (subcutaneous) in B6D2F1 (BDF1) mice
Details: endpoint: mean tumor weight, higher = larger tumour
How it was run: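 Tumor-bearing mice receive test compound while controls get vehicle alone. Antitumor effect is scored from survival or tumor dimensions as a T/C quotient.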

[1] = dose: 9.5 mg/kg/injection, schedule: Q01DX011 (ip), vehicle: carboxymethylcellulose (CMC)
[2] = dose: 19.0 mg/kg/injection, schedule: Q01DX011 (ip), vehicle: carboxymethylcellulose (CMC)
[3] = dose: 38.0 mg/kg/injection, schedule: Q01DX011 (ip), vehicle: carboxymethylcellulose (CMC)
[4] = dose: 15.0 mg/kg/injection, schedule: Q01DX011 (ip), vehicle: methylcellulose (MC)
[5] = dose: 30.0 mg/kg/injection, schedule: Q01DX011 (ip), vehicle: methylcellulose (MC)
[6] = dose: 60.0 mg/kg/injection, schedule: Q01DX011 (ip), vehicle: methylcellulose (MC)

Compound: Oc1ccc2ccccc2c1-c1c(O)ccc2ccccc12
- T/C (dose: 12.6 mg/kg/injection, schedule: Q01DX011 (ip), vehicle: other): 79 % of control
- T/C (dose: 25.0 mg/kg/injection, schedule: Q01DX011 (ip), vehicle: other): 71 % of control
- T/C (dose: 50.0 mg/kg/injection, schedule: Q01DX011 (ip), vehicle: other): 41 % of control

Compound: CCOC(=O)NP(=O)(N1CC1)N1CC1
- T/C (dose: 2.37 mg/kg/injection, schedule: Q01DX011 (ip), vehicle: carboxymethylcellulose (CMC)): 118 % of control
- T/C (dose: 2.5 mg/kg/injection, schedule: Q01DX011 (ip), vehicle: carboxymethylcellulose (CMC)): 67 % of control
- T/C (dose: 4.75 mg/kg/injection, schedule: Q01DX011 (ip), vehicle: carboxymethylcellulose (CMC)): 104 % of control
- T/C (dose: 5.0 mg/kg/injection, schedule: Q01DX011 (ip), vehicle: carboxymethylcellulose (CMC)): 73 % of control
- T/C (dose: 7.6 mg/kg/injection, schedule: Q01DX011 (ip), vehicle: carboxymethylcellulose (CMC)): 101 % of control
- T/C (dose: 8.0 mg/kg/injection, schedule: Q01DX011 (ip), vehicle: carboxymethylcellulose (CMC)): 52 % of control
- T/C [1]: 61 % of control and 75 % of control
- T/C (dose: 10.0 mg/kg/injection, schedule: Q01DX011 (ip), vehicle: carboxymethylcellulose (CMC)): 58 % of control and 77 % of control
- T/C (dose: 12.66 mg/kg/injection, schedule: Q01DX011 (ip), vehicle: carboxymethylcellulose (CMC)): 54 % of control
- T/C (dose: 13.3 mg/kg/injection, schedule: Q01DX011 (ip), vehicle: carboxymethylcellulose (CMC)): 18 % of control
- T/C [2]: 17 % of control and 20 % of control
- T/C (dose: 20.0 mg/kg/injection, schedule: Q01DX011 (ip), vehicle: carboxymethylcellulose (CMC)): 14 % of control

Compound: CS(=O)(=O)OCCC(=O)N1CN(C(=O)CCOS(C)(=O)=O)CN(C(=O)CCOS(C)(=O)=O)C1
- T/C (dose: 28.0 mg/kg/injection, schedule: Q01DX011 (ip), vehicle: methylcellulose (MC)): 115 % of control
- T/C (dose: 57.0 mg/kg/injection, schedule: Q01DX011 (ip), vehicle: methylcellulose (MC)): 110 % of control
- T/C (dose: 225.0 mg/kg/injection, schedule: Q01DX011 (ip), vehicle: methylcellulose (MC)): 81 % of control

Compound: Cc1c2ccccc2c(C)c2c1ccc1ccccc12
- T/C (dose: 9.0 mg/kg/injection, schedule: Q01DX011 (ip), vehicle: carboxymethylcellulose (CMC)): 63 % of control
- T/C [2]: 54 % of control
- T/C [3]: 51 % of control

Compound: CC1CN(Cc2ccco2)C(=S)N(c2ccccc2)C1=O (stereo not drawn)
- T/C [4]: 81 % of control
- T/C (dose: 31.0 mg/kg/injection, schedule: Q01DX011 (ip), vehicle: methylcellulose (MC)): 84 % of control
- T/C (dose: 62.0 mg/kg/injection, schedule: Q01DX011 (ip), vehicle: methylcellulose (MC)): 99 % of control
- T/C (dose: 125.0 mg/kg/injection, schedule: Q01DX011 (ip), vehicle: methylcellulose (MC)): 84 % of control
- T/C (dose: 250.0 mg/kg/injection, schedule: Q01DX011 (ip), vehicle: methylcellulose (MC)): 98 % of control

Compound: C[C@@H]1C[C@@H]([C@H](O)CC2CC(=O)NC(=O)C2)C(=O)[C@@H](C)C1
- T/C (dose: 5.0 mg/kg/injection, schedule: Q#A X022 (ip), vehicle: alkali diluted with saline): 103 % of control
- T/C (dose: 6.63 mg/kg/injection, schedule: Q01DX011 (ip), vehicle: carboxymethylcellulose (CMC)): 51 % of control
- T/C (dose: 7.5 mg/kg/injection, schedule: Q01DX011 (ip), vehicle: methylcellulose (MC)): 89 % of control
- T/C (dose: 8.63 mg/kg/injection, schedule: Q01DX011 (ip), vehicle: carboxymethylcellulose (CMC)): 87 % of control
- T/C [1]: 103 % of control and 117 % of control
- T/C (dose: 10.0 mg/kg/injection, schedule: Q01DX011 (im), vehicle: alkali diluted with saline): 79 % of control
- T/C (dose: 10.0 mg/kg/injection, schedule: Q01DX011 (ip), vehicle: alkali diluted with saline): 66 % of control and 75 % of control
- T/C (dose: 10.0 mg/kg/injection, schedule: Q01DX011 (oral), vehicle: alkali diluted with saline): 62 % of control
- T/C (dose: 10.0 mg/kg/injection, schedule: Q01DX011 (sc), vehicle: steriod suspending solution): 99 % of control
- T/C (dose: 10.0 mg/kg/injection, schedule: Q#A X022 (ip), vehicle: alkali diluted with saline): 64 % of control
- T/C (dose: 12.5 mg/kg/injection, schedule: Q01DX011 (ip), vehicle: methylcellulose (MC)): 71 % of control
- T/C (dose: 13.25 mg/kg/injection, schedule: Q01DX011 (ip), vehicle: carboxymethylcellulose (CMC)): 120 % of control
- T/C (dose: 13.8 mg/kg/injection, schedule: Q01DX011 (ip), vehicle: carboxymethylcellulose (CMC)): 38 % of control
- T/C [4]: 49 % of control
- T/C (dose: 17.25 mg/kg/injection, schedule: Q01DX011 (ip), vehicle: carboxymethylcellulose (CMC)): 50 % of control and 65 % of control
- T/C [2]: 56 % of control and 59 % of control
- T/C (dose: 20.0 mg/kg/injection, schedule: Q01DX006 (iv), vehicle: alkali diluted with saline): 91 % of control
- T/C (dose: 20.0 mg/kg/injection, schedule: Q01DX011 (im), vehicle: alkali diluted with saline): 76 % of control
- T/C (dose: 20.0 mg/kg/injection, schedule: Q01DX011 (oral), vehicle: alkali diluted with saline): 63 % of control
- T/C (dose: 20.0 mg/kg/injection, schedule: Q01DX011 (sc), vehicle: steriod suspending solution): 48 % of control
- T/C (dose: 23.0 mg/kg/injection, schedule: Q01DX011 (ip), vehicle: carboxymethylcellulose (CMC)): 31 % of control
- T/C (dose: 25.0 mg/kg/injection, schedule: Q01DX011 (ip), vehicle: methylcellulose (MC)): 47 % of control
- T/C (dose: 26.5 mg/kg/injection, schedule: Q01DX011 (ip), vehicle: carboxymethylcellulose (CMC)): 50 % of control
- T/C [5]: 33 % of control
- T/C (dose: 30.0 mg/kg/injection, schedule: Q03DX004 (ip), vehicle: alkali diluted with saline): 117 % of control
- T/C (dose: 34.5 mg/kg/injection, schedule: Q01DX011 (ip), vehicle: carboxymethylcellulose (CMC)): 12 % of control and 13 % of control
- T/C [3]: 27 % of control and 32 % of control
- T/C (dose: 40.0 mg/kg/injection, schedule: Q01DX006 (iv), vehicle: alkali diluted with saline): 95 % of control and 76 % of control
- T/C (dose: 40.0 mg/kg/injection, schedule: Q01DX011 (oral), vehicle: alkali diluted with saline): 18 % of control and 42 % of control
- T/C (dose: 40.0 mg/kg/injection, schedule: Q01DX011 (sc), vehicle: steriod suspending solution): 48 % of control
- T/C (dose: 40.0 mg/kg/injection, schedule: Q#A X022 (ip), vehicle: alkali diluted with saline): 22 % of control and 36 % of control
- T/C (dose: 50.0 mg/kg/injection, schedule: Q01DX001 (ip), vehicle: alkali diluted with saline): 88 % of control
- T/C (dose: 50.0 mg/kg/injection, schedule: Q01DX011 (ip), vehicle: methylcellulose (MC)): 13 % of control
- T/C [6]: 6 % of control
- T/C (dose: 60.0 mg/kg/injection, schedule: Q03DX004 (ip), vehicle: alkali diluted with saline): 47 % of control
- T/C (dose: 80.0 mg/kg/injection, schedule: Q01DX006 (iv), vehicle: alkali diluted with saline): 92 % of control and 93 % of control
- T/C (dose: 80.0 mg/kg/injection, schedule: Q01DX011 (im), vehicle: alkali diluted with saline): 4 % of control and 9 % of control
- T/C (dose: 80.0 mg/kg/injection, schedule: Q01DX011 (ip), vehicle: alkali diluted with saline): 9 % of control and 21 % of control
- T/C (dose: 100.0 mg/kg/injection, schedule: Q01DX001 (ip), vehicle: alkali diluted with saline): 63 % of control
- T/C (dose: 120.0 mg/kg/injection, schedule: Q03DX004 (ip), vehicle: alkali diluted with saline): 41 % of control
- T/C (dose: 160.0 mg/kg/injection, schedule: Q01DX006 (iv), vehicle: alkali diluted with saline): 24 % of control
- T/C (dose: 200.0 mg/kg/injection, schedule: Q01DX001 (ip), vehicle: alkali diluted with saline): 186 % of control
- T/C (dose: 400.0 mg/kg/injection, schedule: Q01DX001 (ip), vehicle: alkali diluted with saline): 89 % of control

Compound: [N-]=[N+]=[N-]
- T/C (dose: 1.06 mg/kg/injection, schedule: Q01DX011 (ip), vehicle: carboxymethylcellulose (CMC)): 114 % of control
- T/C (dose: 1.55 mg/kg/injection, schedule: Q01DX011 (ip), vehicle: carboxymethylcellulose (CMC)): 75 % of control
- T/C (dose: 2.13 mg/kg/injection, schedule: Q01DX011 (ip), vehicle: carboxymethylcellulose (CMC)): 61 % of control
- T/C (dose: 3.1 mg/kg/injection, schedule: Q01DX011 (ip), vehicle: carboxymethylcellulose (CMC)): 82 % of control
- T/C (dose: 4.25 mg/kg/injection, schedule: Q01DX011 (ip), vehicle: carboxymethylcellulose (CMC)): 80 % of control
- T/C (dose: 6.2 mg/kg/injection, schedule: Q01DX011 (ip), vehicle: carboxymethylcellulose (CMC)): 57 % of control
- T/C (dose: 8.5 mg/kg/injection, schedule: Q01DX011 (ip), vehicle: carboxymethylcellulose (CMC)): 80 % of control
- T/C (dose: 12.4 mg/kg/injection, schedule: Q01DX011 (ip), vehicle: carboxymethylcellulose (CMC)): 80 % of control

Compound: O=C(Nc1ccc(C2=NCCN2)cc1)c1cc(Cl)c(C(=O)Nc2ccc(C3=NCCN3)cc2)cc1Cl
- T/C [4]: 105 % of control
- T/C [5]: 68 % of control

Compound: Nc1nc(I)c2[nH]cnc2n1
- T/C [4]: 52 % of control
- T/C [5]: 109 % of control
- T/C [6]: 41 % of control
- T/C (dose: 120.0 mg/kg/injection, schedule: Q01DX011 (ip), vehicle: methylcellulose (MC)): 44 % of control
